Experimental findings from patent US20240279227A1, “FUSED HETEROCYCLIC DERIVATIVES” (Janssen Sciences Ireland Unlimited Company, priority 2021, published 2024) are described below.

The test system of series [1] is HBV. In words: Anti-HBV activity in HepG2.117 cell line (intracellular HBV DNA, real-time PCR). It is filed as cell-based, hepatitis B virus. The conditions noted are these: HepG2.117 cells, HBV replication induced, 3 days of treatment, intracellular HBV DNA by real-time PCR. On the procedure: The anti HBV activity was measured using the HepG2.117 cell line, a stable, inducibly HBV producing cell line, which replicates HBV in the absence of doxycycline (Tet-off system). The HepG2 cell line is available from ATCCR under number HB-8065. Transfection of the HepG2 cell line can be as described in Sun and Nassal 2006 Journal of Hepatology 45 (2006) 636-645 “Stable HepG2-and Huh7-based human hepatoma cell lines for efficient regulated expression of infectious hepatitis B virus”.
For the antiviral assay, HBV replication was induced, followed by a treatment with serially diluted compound in 96-well plates. After 3 days of treatment, the antiviral activity was determined by quantification of intracellular HBV DNA using real-time PCR and an HBV specific primer set and probe.
(Quantitative PCR measures a nucleic acid by following its amplification.)

The nature of series [2]: Cytotoxicity, ATPlite Luminescence Assay. In kind it is cell-based, human. The conditions noted are these: human, HepG2 or HepG2.117 cells, 3-days incubation unless marked with *, ATPlite viability. On the procedure:
Cytotoxicity of the compounds was tested using HepG2 or HepG2.117 cells, incubated for 3 or 4 days in the presence of compounds. The viability of the cells was assessed using the PERKIN ELMER ATPlite Luminescence Assay System.”

A short description of series [3]: Human liver microsome stability. It is filed as in vitro ADME. The conditions noted are these: human, pooled human liver microsomes, pH 7.4, pooled human liver microsomes 0.5 mg/mL, 1 μM compound, NADPH 1 mM, pH 7.4, 37° C., 0-60 min; read-out: HLM Metabolism t1/2. The protocol: Pooled human liver microsomes (0.5 mg/mL) was pre-incubated with 1 μM test compounds or control compounds (verapamil, warfarin and cerivastatin) in 0.1 M phosphate buffer pH 7.4 containing 1 mM MgCl2 at 37° C. The final concentration of DMSO and acetonitrile are 0.05% and 0.2%, respectively. All incubations are performed singularly for each compound. NADPH was added to initiate the reaction with the final concentration of 1 mM and the final incubation volume of 400 μL.
At 6 time points (0, 5, 10, 20, 40 and 60 min) reactions were stopped by the removal of 50 μL of the incubation mixture into plates containing acetonitrile at a of 1:3 (v:v). The plates were centrifuged at 3000 rpm for 10 min at 4° C. to precipitate the protein. Following protein precipitation, the sample supernatants were combined in cassettes of up to 8 compounds. The internal standard was added (1:1 supernatant to internal standard solution) and samples were analyzed using standard LC-MS conditions.
From a plot of ln peak area ratio (compound peak area/internal standard peak area) against time, the gradient of the line is determined. Subsequently, half-life is calculated using the equations below: […]

Where [4] appears, read: Hepatitis B virus, HepG2.117, 72 h.

Some results are limits rather than exact numbers.

In general, EC50 refers to the concentration needed to bring the measured effect to its halfway point. Higher therefore signals a need for much substance. What is called CC50 is the concentration that lowers cell viability or growth by half. A higher CC50 goes with better tolerance by the cells. Regarding `CNC(=O)[C@@H]1CN(C(C)c2ccc(-n3cncn3)cn2)C(=O)c2c3c(nn21)C[C@@H](C)N(C(=O)c1ccc(Cl)c(Cl)c1)C3` (single isomer, unassigned) [Compound 40A, (3R,7S)-9-((R*)-1-(5-(1H-1,2,4-Triazol-1-yl)pyridin-2-yl)ethyl)-2-(3,4-dichlorobenzoyl)-N,3-dimethyl-10-oxo-1,2,3,4,7,8,9,10-octahydropyrido[4′,3′:3,4]pyrazolo [1,5-a]pyrazine-7-carboxamide], the EC50 in series [1] amounted to 0.28 µM. For the same molecule, the CC50 in series [2] was over 50 µM. The half-life at 1 μM in series [3] is over 3 h.
The matching figures for `CNC(=O)[C@@H]1CN(C(C)c2ccc(-n3ncnc3C)cn2)C(=O)c2c3c(nn21)C[C@@H](C)N(C(=O)c1ccc(Cl)c(Cl)c1)C3` (single isomer, unassigned) [Compound 41A, (3R,7S)-2-(3,4-Dichlorobenzoyl)-N,3-dimethyl-9-((R*)-1-(5-(5-methyl-1H-1,2,4-triazol-1-yl)pyridin-2-yl)ethyl)-10-oxo-1,2,3,4,7,8,9,10-octahydropyrido[4′,3′:3,4] pyrazolo[1,5-a]pyrazine-7-carboxamide]: 2.21 µM, over 50 µM and over 3 h.
Regarding `CNC(=O)[C@@H]1CN(C(C)c2cc(F)ccn2)C(=O)c2c3c(nn21)C[C@@H](C)N(C(=O)c1ccc(Cl)c(Cl)c1)C3` (single isomer, unassigned) [Compound 42A, (3R,7S)-2-(3,4-Dichlorobenzoyl)-9-((R*)-1-(4-fluoropyridin-2-yl)ethyl)-N,3-dimethyl-10-oxo-1,2,3,4,7,8,9,10-octahydropyrido[4′,3′:3,4]pyrazolo[1,5-a]pyrazine-7-carboxamide], the EC50 in series [1] turned out to be 0.28 µM. Moreover, the CC50 in series [2] was over 50 µM. Further, the half-life at 1 μM in series [3] was over 3 h.
As to `CNC(=O)[C@@H]1CN(C(C)c2cnc(C(F)(F)F)nc2)C(=O)c2c3c(nn21)C[C@@H](C)N(C(=O)c1ccc(Cl)c(C(F)(F)F)c1)C3` (single isomer, unassigned) [Compound 43A, (3R,7S)-2-(4-Chloro-3-(trifluoromethyl)benzoyl)-N,3-dimethyl-10-oxo-9-((R*)-1-(2-(trifluoromethyl)pyrimidin-5-yl)ethyl)-1,2,3,4,7,8,9,10-octahydropyrido[4′,3′:3,4]pyrazolo[1,5-a]pyrazine-7-carboxamide], the EC50 in series [1] is 0.61 µM. Besides, in series [2], the CC50 is over 50 µM. In addition, the half-life at 1 μM in series [3] is over 3 h.
With `CNC(=O)[C@@H]1CN(C(C)c2nc(C(F)(F)F)cs2)C(=O)c2c3c(nn21)C[C@@H](C)N(C(=O)c1ccc(Cl)c(Cl)c1)C3` (single isomer, unassigned) [Compound 44A, (3R,7S)-2-(3,4-Dichlorobenzoyl)-N,3-dimethyl-10-oxo-9-((R*)-1-(4-(trifluoromethyl)thiazol-2-yl)ethyl)-1,2,3,4,7,8,9,10-octahydropyrido[4′,3′:3,4]pyrazolo[1,5-a]pyrazine-7-carboxamide], in series [1] (setting [4]), the EC50 worked out at 0.12 µM. Further, in series [2], the CC50 was over 50 µM. For the same molecule, the half-life at 1 μM in series [3] was over 3 h.
The matching figures for `CNC(=O)[C@@H]1CN([C@H](C)c2cnc(C(F)(F)F)nc2)C(=O)c2c3c(nn21)C[C@@H](C)N(C(=O)c1ccc(Cl)c(Cl)c1)C3` [Compound 4A, (3R,7S)-2-(3,4-Dichlorobenzoyl)-N,3-dimethyl-10-oxo-9-((R)-1-(2-(trifluoromethyl)pyrimidin-5-yl)ethyl)-1,2,3,4,7,8,9,10-octahydropyrido[4′,3′:3,4]pyrazolo[1,5-a]pyrazine-7-carboxamide]: 2.44 µM, over 50 µM and over 3 h.
Regarding `CNC(=O)[C@@H]1CN([C@@H](C)c2cnc(C(F)(F)F)nc2)C(=O)c2c3c(nn21)C[C@@H](C)N(C(=O)c1ccc(Cl)c(Cl)c1)C3` [Compound 4B, (3R,7S)-2-(3,4-dichlorobenzoyl)-N,3-dimethyl-10-oxo-9-((S)-1-(2-(trifluoromethyl)pyrimidin-5-yl)ethyl)-1,2,3,4,7,8,9,10-octahydropyrido[4′,3′:3,4]pyrazolo[1,5-a]pyrazine-7-carboxamide], the EC50 in series [1] (setting [4]) came out at 0.16 µM. Also, the CC50 in series [2] is over 50 µM. Also, in series [3], the half-life at 1 μM was over 3 h.
The matching figures for `CNC(=O)[C@@H]1CN([C@@H](C)c2cnc(C(F)(F)F)cn2)C(=O)c2c3c(nn21)C[C@@H](C)N(C(=O)c1ccc(Cl)c(Cl)c1)C3` [Compound 6B, (3R,7S)-2-(3,4-Dichlorobenzoyl)-N,3-dimethyl-10-oxo-9-((S)-1-(5-(trifluoromethyl)pyrazin-2-yl)ethyl)-1,2,3,4,7,8,9,10-octahydropyrido[4′,3′:3,4]pyrazolo[1,5-a]pyrazine-7-carboxamide]: 0.092 µM, over 50 µM and over 3 h.
The matching figures for `CNC(=O)[C@@H]1CN([C@H](C)c2ccc(C(F)(F)F)nc2)C(=O)c2c3c(nn21)C[C@@H](C)N(C(=O)c1ccc(Cl)c(Cl)c1)C3` [Compound 13A, (3R,7S)-2-(3,4-Dichlorobenzoyl)-N,3-dimethyl-10-oxo-9-((R)-1-(6-(trifluoromethyl)pyridin-3-yl)ethyl)-1,2,3,4,7,8,9,10-octahydropyrido[4′,3′:3,4]pyrazolo[1,5-a]pyrazine-7-carboxamide]: 0.34 µM, over 50 µM and over 3 h.
The matching figures for `CNC(=O)[C@@H]1CN([C@@H](C)c2ccc(C(F)(F)F)nc2)C(=O)c2c3c(nn21)C[C@@H](C)N(C(=O)c1ccc(Cl)c(Cl)c1)C3` [Compound 13B, (3R,7S)-2-(3,4-dichlorobenzoyl)-N,3-dimethyl-10-oxo-9-((S)-1-(6-(trifluoromethyl)pyridin-3-yl)ethyl)-1,2,3,4,7,8,9,10-octahydropyrido[4′,3′:3,4]pyrazolo[1,5-a]pyrazine-7-carboxamide]: 0.033 µM, 46.8 µM and over 3 h.
Molecule `CNC(=O)[C@@H]1CN([C@H](C)c2ccc(C(F)(F)F)nc2)C(=O)c2c3c(nn21)C[C@@H](C)N(C(=O)c1ccc(Cl)c(C(F)(F)F)c1)C3` [Compound 15A, (3R,7S)-2-(4-Chloro-3-(trifluoromethyl)benzoyl)-N,3-dimethyl-10-oxo-9-((R)-1-(6-(trifluoromethyl)pyridin-3-yl)ethyl)-1,2,3,4,7,8,9,10-octahydropyrido[4′,3′:3,4]pyrazolo[1,5-a]pyrazine-7-carboxamide] returned an EC50 in series [1] (setting [4]) of 0.086 µM. In series [2], this molecule gave a CC50 of over 50 µM. In addition, the half-life at 1 μM in series [3] was over 3 h.
The matching figures for `CNC(=O)[C@@H]1CN([C@@H](C)c2ccc(C(F)(F)F)nc2)C(=O)c2c3c(nn21)C[C@@H](C)N(C(=O)c1ccc(Cl)c(C(F)(F)F)c1)C3` [Compound 15B, (3R,7S)-2-(4-chloro-3-(trifluoromethyl)benzoyl)-N,3-dimethyl-10-oxo-9-((S)-1-(6-(trifluoromethyl)pyridin-3-yl)ethyl)-1,2,3,4,7,8,9,10-octahydropyrido[4′,3′:3,4]pyrazolo[1,5-a]pyrazine-7-carboxamide]: 0.029 µM, 29.8 µM and over 3 h.
